From patent publication US20130089624A1, “Compounds Useful as Inhibitors of ATR Kinase” (VERTEX PHARMACEUTICALS INCORPORATED, priority 2011, published 2013)

Columns and labels:
[1] = Pharmacokinetics, noncompartmental parameters following intravenous (IV) dosing; conditions: in vivo
Protocol: Noncompartmental pharmacokinetic parameters were analyzed using Watson Bioanalytical LIMS (Version 7.4; Thermo Fisher Scientific) from either the blood or plasma samples. The following parameters were estimated following intravenous (IV) dosing; terminal elimination half-life (T1/2=ln(2)/λz, where λz is the first order rate constant associated with the terminal (log-linear) portion of the curve.
The area under the curve (AUClast=area under the curve from the time of dosing to the last measurable concentration). The area under the curve extrapolated to infinity (AUC0-∞=AUClast+Clast/λz). The clearance (Cl; Cl=DoseIV/AUC0-∞). The area under the first moment curve (AUMClast=area under the concentration times time versus time curve from the time of dosing to the last measurable concentration). The area under the first moment curve extrapolated to infinity (AUMC0-∞=AUMClast+Clast×t/λz+Clast/λz^2). The mean residence time (MRT=AUMC0-∞/AUC0-∞) and the steady state volume of distribution (Vdss=MRT×Cl).
Clearance and volume of distribution can also be obtained using methods known to one of skill in the art (see e.g., Handbook of Essential Pharmacokinetics, Pharmacodynamics and Drug Metabolism for Industrial Scientists, Younggil Kwon, pp 18-28 (Non-compartmental Approach)).

full-length ATR = full-length ATR (Homo sapiens (Human), UniProt Q13535); experiment: ATR Inhibition Assay (radioactive-phosphate incorporation); assay type: biochemical; conditions: Ki(app); 5 nM full-length ATR, 10 μM ATP, 25° C.
Protocol: Compounds were screened for their ability to inhibit ATR kinase using a radioactive-phosphate incorporation assay. Assays were carried out in a mixture of 50 mM Tris/HCl (pH 7.5), 10 mM MgCl2 and 1 mM DTT. Final substrate concentrations were 10 μM [γ-33P]ATP (3mCi 33P ATP/mmol ATP, Perkin Elmer) and 800 μM target peptide (ASELPASQPQPFSAKKK).
Assays were carried out at 25° C. in the presence of 5 nM full-length ATR. An assay stock buffer solution was prepared containing all of the reagents listed above, with the exception of ATP and the test compound of interest. 13.5 μL of the stock solution was placed in a 96 well plate followed by addition of 2 μL of DMSO stock containing serial dilutions of the test compound (typically starting from a final concentration of 15 μM with 3-fold serial dilutions) in duplicate (final DMSO concentration 7%). The plate was pre-incubated for 10 minutes at 25° C. and the reaction initiated by addition of 15 μL [γ-33P]ATP (final concentration 10 μM).
The reaction was stopped after […] by the addition of 30 μL 0.1M phosphoric acid containing 2 mM ATP. […]
After removing mean background values for all of the data points, Ki(app) data were calculated from non-linear regression analysis of the initial rate data using the Prism software package (GraphPad Prism version 3.0cx for Macintosh, GraphPad Software, San Diego Calif., USA).

[2] = system: HCT116 colorectal cancer cells; experiment: Single Agent HCT116 Activity, 96 h cell viability (MTS) assay; assay type: cell-based; conditions: Homo sapiens, HCT-116, 96 h MTS, read-out: Single agent HT116 IC50
Protocol: Compounds can be screened for single agent activity against HCT116 colorectal cancer cells using a 96 h cell viability (MTS) assay. HCT116 are plated at 470 cells per well in 96-well polystyrene plates (Costar 3596) in 150 μl of McCoy's 5A media (Sigma M8403) supplemented with 10% foetal bovine serum (JRH Biosciences 12003), Penicillin/Streptomycin solution diluted 1:100 (Sigma P7539), and 2 mM L-glumtamine (Sigma G7513), and allowed to adhere overnight at 37° C. in 5% CO2. Compounds are then added to the cell media in 2-fold serial dilutions from a top final concentration of 10 μM as a full matrix of concentrations in a final cell volume of 200 μl, and the cells are then incubated at 37° C. in 5% CO2. After 96 h, 40 μl of MTS reagent (Promega G358a) is added to each well and the cells are incubated for 1 h at 37° C. in 5% CO2. Finally, absorbance is measured at 490 nm using a SpectraMax Plus 384 reader (Molecular Devices) and IC50 values can be calculated.

intracellular ATR = intracellular ATR (Homo sapiens (Human), UniProt Q13535); experiment: Cellular ATR Inhibition Assay (phosphorylation of histone H2AX in hydroxyurea treated HT29 cells); assay type: cell-based; conditions: phosphorylated H2AX Ser139 in HT29 cells, 2 mM hydroxyurea; read-out: ATR biomarker IC50
Protocol: Compounds can be screened for their ability to inhibit intracellular ATR using an immunofluorescence microscopy assay to detect phosphorylation of the ATR substrate histone H2AX in hydroxyurea treated cells. HT29 cells are plated at 14,000 cells per well in 96-well black imaging plates (BD 353219) in McCoy's 5A media (Sigma M8403) supplemented with 10% foetal bovine serum (JRH Biosciences 12003), Penicillin/Streptomycin solution diluted 1:100 (Sigma P7539), and 2 mM L-glumtamine (Sigma G7513), and allowed to adhere overnight at 37° C. in 5% CO2. Compounds are then added to the cell media from a final concentration of 25 μM in 3-fold serial dilutions and the cells are incubated at 37° C. in 5% CO2. […]
Cells are imaged for Alexa Fluor 488 and Hoechst intensity using the BD Pathway 855 Bioimager and Attovision software (BD Biosciences, Version 1.6/855) to quantify phosphorylated H2AX Ser139 and DNA staining, respectively. The percentage of phosphorylated H2AX-positive nuclei in a montage of 9 images at 20× magnification is then calculated for each well using BD Image Data Explorer software (BD Biosciences Version 2.2.15). […] The percentage of H2AX positive nuclei is finally plotted against concentration for each compound and IC50s for intracellular ATR inhibition are determined using Prism software (GraphPad Prism version 3.0cx for Macintosh, GraphPad Software, San Diego Calif., USA).

[3] = system: HCT116 colorectal cancer cells; experiment: Cisplatin Sensitization Assay, 96 h cell viability (MTS) assay; assay type: cell-based; conditions: concentration of compound required to reduce the IC50 of Cisplatin alone by at least 3-fold; HCT116, 96 h MTS
Protocol: Compounds can be screened for their ability to sensitize HCT116 colorectal cancer cells to Cisplatin using a 96 h cell viability (MTS) assay. […] Compounds and Cisplatin are then both added simultaneously to the cell media in 2-fold serial dilutions from a top final concentration of 10 μM as a full matrix of concentrations in a final cell volume of 200 μl, and the cells are then incubated at 37° C. in 5% CO2. After 96 h, 40 μl of MTS reagent (Promega G358a) is added to each well and the cells are incubated for 1 h at 37° C. in 5% CO2. Finally, absorbance is measured at 490 nm using a SpectraMax Plus 384 reader (Molecular Devices) and the concentration of compound required to reduce the IC50 of Cisplatin alone by at least 3-fold (to 1 decimal place) can be reported.

Chain of full-length ATR (Q13535 whole entry): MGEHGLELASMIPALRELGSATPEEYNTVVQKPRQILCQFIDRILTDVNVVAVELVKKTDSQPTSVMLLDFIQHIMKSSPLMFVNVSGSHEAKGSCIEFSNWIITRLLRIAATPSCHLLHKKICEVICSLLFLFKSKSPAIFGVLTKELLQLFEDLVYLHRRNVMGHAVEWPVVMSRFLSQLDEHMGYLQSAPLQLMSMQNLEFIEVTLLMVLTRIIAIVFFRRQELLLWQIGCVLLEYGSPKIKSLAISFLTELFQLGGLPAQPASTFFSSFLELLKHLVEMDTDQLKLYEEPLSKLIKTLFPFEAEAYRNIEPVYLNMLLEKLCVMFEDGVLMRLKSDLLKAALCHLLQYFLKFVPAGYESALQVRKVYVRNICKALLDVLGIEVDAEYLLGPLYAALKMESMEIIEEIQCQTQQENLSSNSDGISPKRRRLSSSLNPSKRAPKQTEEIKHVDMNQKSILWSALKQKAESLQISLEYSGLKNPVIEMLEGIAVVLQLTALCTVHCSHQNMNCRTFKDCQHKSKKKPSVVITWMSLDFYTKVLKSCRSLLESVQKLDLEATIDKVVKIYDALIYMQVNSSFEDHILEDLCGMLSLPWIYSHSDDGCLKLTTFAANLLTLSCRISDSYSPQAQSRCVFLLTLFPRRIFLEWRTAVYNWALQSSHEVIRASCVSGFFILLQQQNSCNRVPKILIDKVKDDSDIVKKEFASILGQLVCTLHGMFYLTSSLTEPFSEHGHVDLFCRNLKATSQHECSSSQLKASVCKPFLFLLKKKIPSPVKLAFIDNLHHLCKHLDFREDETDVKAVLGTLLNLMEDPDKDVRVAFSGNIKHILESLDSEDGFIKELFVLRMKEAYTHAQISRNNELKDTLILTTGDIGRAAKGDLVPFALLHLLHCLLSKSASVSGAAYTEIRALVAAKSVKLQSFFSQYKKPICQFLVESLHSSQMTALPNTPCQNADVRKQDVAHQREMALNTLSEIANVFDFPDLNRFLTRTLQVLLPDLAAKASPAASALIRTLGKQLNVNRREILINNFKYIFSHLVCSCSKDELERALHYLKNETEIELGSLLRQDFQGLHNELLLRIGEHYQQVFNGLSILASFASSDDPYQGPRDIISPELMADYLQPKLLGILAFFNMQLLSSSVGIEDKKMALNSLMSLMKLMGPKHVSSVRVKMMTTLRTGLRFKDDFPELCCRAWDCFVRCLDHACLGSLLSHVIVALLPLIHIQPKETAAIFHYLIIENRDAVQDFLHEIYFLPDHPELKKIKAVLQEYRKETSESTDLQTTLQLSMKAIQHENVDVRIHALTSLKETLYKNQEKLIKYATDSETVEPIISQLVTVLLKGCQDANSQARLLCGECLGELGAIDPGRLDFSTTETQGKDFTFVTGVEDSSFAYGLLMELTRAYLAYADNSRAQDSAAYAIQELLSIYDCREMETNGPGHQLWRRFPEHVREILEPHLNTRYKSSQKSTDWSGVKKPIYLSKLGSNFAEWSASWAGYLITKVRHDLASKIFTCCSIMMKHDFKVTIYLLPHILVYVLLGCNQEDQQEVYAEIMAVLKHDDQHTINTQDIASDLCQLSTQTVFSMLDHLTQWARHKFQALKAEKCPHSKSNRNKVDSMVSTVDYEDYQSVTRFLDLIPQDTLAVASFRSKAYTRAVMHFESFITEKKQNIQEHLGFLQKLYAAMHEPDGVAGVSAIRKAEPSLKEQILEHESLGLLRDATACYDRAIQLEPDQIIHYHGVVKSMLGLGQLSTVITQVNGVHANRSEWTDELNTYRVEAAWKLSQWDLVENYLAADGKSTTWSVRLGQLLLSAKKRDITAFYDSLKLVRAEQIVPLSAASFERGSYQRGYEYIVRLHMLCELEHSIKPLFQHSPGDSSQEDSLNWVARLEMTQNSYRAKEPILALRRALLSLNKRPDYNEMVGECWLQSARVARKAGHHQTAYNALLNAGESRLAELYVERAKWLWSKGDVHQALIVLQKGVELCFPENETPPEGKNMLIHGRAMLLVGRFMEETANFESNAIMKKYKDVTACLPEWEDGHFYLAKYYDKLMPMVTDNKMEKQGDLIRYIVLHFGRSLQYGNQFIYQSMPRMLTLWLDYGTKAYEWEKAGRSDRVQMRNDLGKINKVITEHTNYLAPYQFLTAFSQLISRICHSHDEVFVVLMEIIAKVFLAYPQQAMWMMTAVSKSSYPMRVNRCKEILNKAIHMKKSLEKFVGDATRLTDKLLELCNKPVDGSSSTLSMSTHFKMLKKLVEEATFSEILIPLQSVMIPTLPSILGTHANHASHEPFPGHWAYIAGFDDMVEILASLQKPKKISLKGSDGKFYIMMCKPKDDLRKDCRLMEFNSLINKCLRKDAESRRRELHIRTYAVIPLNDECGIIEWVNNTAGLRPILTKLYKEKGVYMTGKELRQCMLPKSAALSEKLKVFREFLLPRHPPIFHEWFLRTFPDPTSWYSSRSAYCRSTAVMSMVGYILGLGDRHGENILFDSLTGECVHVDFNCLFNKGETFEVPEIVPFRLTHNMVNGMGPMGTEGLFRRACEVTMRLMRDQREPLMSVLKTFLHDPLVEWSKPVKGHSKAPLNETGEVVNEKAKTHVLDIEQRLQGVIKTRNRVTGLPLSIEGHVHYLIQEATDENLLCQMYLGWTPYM
Chain of intracellular ATR (Q13535 whole entry): as above
Chain of intracellular ATR (Q8WXE1 whole entry partner): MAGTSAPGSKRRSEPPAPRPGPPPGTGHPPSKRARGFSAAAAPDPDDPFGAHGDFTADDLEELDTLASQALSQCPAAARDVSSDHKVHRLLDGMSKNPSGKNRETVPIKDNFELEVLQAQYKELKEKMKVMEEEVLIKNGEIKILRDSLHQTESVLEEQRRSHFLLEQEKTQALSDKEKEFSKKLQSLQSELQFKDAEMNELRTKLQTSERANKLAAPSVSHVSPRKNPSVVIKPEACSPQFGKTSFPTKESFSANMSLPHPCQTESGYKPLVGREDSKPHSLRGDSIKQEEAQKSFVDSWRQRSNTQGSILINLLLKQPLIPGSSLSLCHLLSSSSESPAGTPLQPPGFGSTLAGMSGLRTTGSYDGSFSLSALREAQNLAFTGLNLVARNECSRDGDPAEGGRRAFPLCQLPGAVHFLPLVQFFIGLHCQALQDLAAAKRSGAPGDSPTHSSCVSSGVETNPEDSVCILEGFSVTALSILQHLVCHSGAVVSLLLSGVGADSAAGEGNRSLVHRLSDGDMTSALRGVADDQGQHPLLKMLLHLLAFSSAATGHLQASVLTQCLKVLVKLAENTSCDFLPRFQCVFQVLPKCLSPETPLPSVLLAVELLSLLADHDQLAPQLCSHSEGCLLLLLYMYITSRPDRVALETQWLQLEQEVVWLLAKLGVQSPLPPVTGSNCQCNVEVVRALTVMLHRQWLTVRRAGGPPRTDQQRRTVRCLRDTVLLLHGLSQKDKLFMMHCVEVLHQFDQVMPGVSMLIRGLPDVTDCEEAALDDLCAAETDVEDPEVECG

clearance ([1]; blood or plasma samples): 3.5 mL/min/kg | Vd ([1]; steady state volume of distribution, read-out: VSS): 1.1 L/kg | Ki (full-length ATR): 0.503 nM | IC50 [2]: 365 nM | IC50 (intracellular ATR): 200 nM
Compound: CC(C)S(=O)(=O)c1ccc(-c2cnc(N)c(-c3cc(-c4ccc([C@@H]5COCCN5)cc4)no3)n2)cc1 [I, 5-(4-isopropylsulfonylphenyl)-3-[3-[4-[(3R)-morpholin-3-yl]phenyl]isoxazol-5-yl]pyrazin-2-amine]
Cisplatin sensitization [3]: 117 nM
